Experimental data from patent US20230059009A1, “INHIBITORS OF LIN28 AND METHODS OF USE THEREOF” (The Regents of the University of California, priority 2019, published 2023).
“Also recorded” adds a separate entry of the source.

What was measured:
[1] = target: T1, LIN28B/pre-let-7a-2 binding (Homo sapiens, UniProt Q6ZN17); assay: FRET assay, EGFP-tagged LIN28B and BHQ-1 labelled pre-let-7a-2; conditions: doses 1.25 uM-20 uM; compared with LN1632
T1 construct: made in house; host or cells: stably transduced HEK cells; used as diluted protein lysate, not purified
T1 sequence (Q6ZN17 1-250): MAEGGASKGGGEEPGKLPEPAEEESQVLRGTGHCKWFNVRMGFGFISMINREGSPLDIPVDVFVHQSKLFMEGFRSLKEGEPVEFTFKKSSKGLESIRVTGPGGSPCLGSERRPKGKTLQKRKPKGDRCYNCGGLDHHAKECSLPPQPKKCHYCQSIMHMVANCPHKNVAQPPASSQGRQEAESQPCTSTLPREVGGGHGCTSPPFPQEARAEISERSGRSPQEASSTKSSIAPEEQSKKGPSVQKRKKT
Experimental: As described herein, compounds of formula (I) and (II) show Lin28/let-7 inhibitory activity in FRET assays in vitro and in LSCs and LSC-like Kasumi-1 cells. FRET assay was performed as previously described (51).
In order to improve binding and inhibitory capacity of a compound to LIN28b, we predicted the binding mode of LN1632 to LIN28B. […] With this model in hand, we synthesized novel compounds with improved binding capacity to Lin28b (JGJ002-JGJ008, FIG. 8). Compounds were screened using a previously described FRET-assay with an EGFP-tagged LIN28B as donor and a BHQ-1 quencher labelled pre-let-7a-2 (pre-let-7a-2-BHQ1) as acceptor (51). Briefly, recombinant LIN28B-EGFP was harvested from stably transduced HEK cells and diluted with binding buffer (300 mM NaCl, 25 mM HEPES pH 7.2, 10 μM ZnCl2, 1% Odyssey Blocking Buffer, 0.05% Tween 20, 0.5 mM TCEP) in order to adjust ideal FRET-quenching signal intensity. Protein lysate and compounds (JGJ001-JGJ008) were pre-incubated in doses ranging from 1.25 uM-20 uM for 20 min in 100 uL diluted protein lysate. Subsequently pre-let-7a-2-BHQ1 was added to the mixture (at 6.25 nM) and EGFP-LIN28B donor emission was measured using a Tecan Spark Plate Reader ([…], excitation at 488 nm, emission read-out at […], 30 flashes/s). […] Increased endogenous let-7 miRNA levels can target a panoply of LCS and cancer stem cell hallmark genes thus inhibiting tumor growth.
To test the structure-activity relationship, 39 LN1632-related analogs (JGJ001-39) were synthesized and their potency and specificity to inhibit LIN28B-RNA binding activity and upregulate mature let-7 miRNA levels was measured. […] The dual luciferase reporter assay was performed as previously described (89).

[2] = tested on: MOLM-13 (no LIN28B); assay: Subcutaneous MOLM-13 AML xenograft; type: in vivo; conditions: MOLM-13 subQ in NSG mice, 100 mg/kg IP every other day
Experimental: Thus, we subcutaneously (subQ) implanted THP-1 (high LIN28B) cells or MOLM-13 (no LIN28B) into NSG mice and 12 d later (tumor size=40 mm^2) started administration of 1632 IP at 100 mg/kg every other day.

[3] = tested on: THP-1 cells (high LIN28B); assay: Subcutaneous THP-1 AML xenograft; type: in vivo, NSG / NSGS mice; conditions: for Tumor growth: 100 mg/kg
Experimental: Subsequently, the tumor suppressive effect of LN1632 in cancer in vivo was assessed. High LIN28B expressing THP-1 AML cells (2×10^6 cells) were implanted in NSGS mice (cell suspension in matrigel, 3:1) and at d+12 or d+8 (tumor size=50 mm^2) injection of LN1632 IP at 100 mg/kg daily was initiated. […] The effect of LN1632 in a systemic Kasumi-1 xenograft was also assessed. […] The effects of LN1632 to cytarabine chemotherapy (Ara-C) was also compared, as previously described (74). THP-1 AML cells were subcutaneously implanted (1.5×10^6 cells, high LIN28B) in NSGS mice. Daily IP injections with 100 mg/kg LN1632, 60 mg/kg cytarabine chemotherapy (Ara-C), or vehicle was started at +d3 post AML cell implantation and continued until the vehicle group reached maximal allowed tumor size (250 mm^2).

[4] = tested on: let-7 target genes / MYC target gene signatures; assay: RNA sequencing in Kasumi-1 cells; type: cell-based, human; conditions: 40 μM or 100 μM LN1632 vs control
From the text: To measure the complete degree to which LN1632 regulates gene expression, we carried out RNA sequencing (RNAseq) in LSC-like Kasumi-1 cells. […] Importantly, we confirmed this gene expression pattern in primary AML cells from three relapsed patients (validated for LIN28B overexpression compared to healthy WBM). […] This is important because NFκB1, regulated by let-7 through IL6 (23) is, together with other BCL-2 family members (BAX, BCL2L15 and BMF, FIG. 5A), a well characterized gene associated with unique properties of LSC survival and AML relapse (45, 59, 60). […] We next explored the effect of LN1632 on primary AML cells.
To determine the degree to which LN1632 regulates gene expression, RNA sequencing was performed in human Kasumi-1 AML cells. […] In addition, ingenuity pathway analysis predicted suppression of upstream signaling molecules IL6 and MYC (FIG. 9C).

With `CC(=O)Nc1cccc(-c2ccc3ncc(C)n3n2)c1` [JGJ007, N-(3-(3-Methylimidazo[1,2-b]pyridazin-6-yl)phenyl)acetamide] the “Inhibition of LIN28B binding to pre-let-7a (FRET signal)” value [1] was “greater inhibition of the LIN28B/pre-let-7a2 binding than the original compound LN1632”.

`CC(=O)N(C)c1cccc(-c2ccc3nnc(C)n3n2)c1` [LN1632] was tested, and the Tumor growth [2] was “minimal effect on tumor growth; also recorded: significantly reduced tumor growth in THP-1 but not MOLM-13”, the Tumor growth ([3]; THP-1 subQ in NSG mice, 100 mg/kg IP every other day) was “significantly slowed tumor growth; also recorded: significantly reduced tumor growth” and the Tumor growth ([3]; THP-1 subQ in NSGS mice, 100 mg/kg IP daily) was “significantly reduced tumor growth 19 days post injection; also recorded: significantly slowed tumor growth”. For the same compound, the “AML tumor proliferation, LN1632 vs Ara-C” value ([3]; THP-1 subQ in NSGS mice, daily IP 100 mg/kg LN1632 or 60 mg/kg Ara-C from +d3) was “increased inhibition of AML tumor proliferation compared to Ara-C or vehicle treated mice; also recorded: inhibited proliferation” and the “Gene expression (RNAseq)” value [4] was “significant downregulation of a panoply of direct let-7 target genes; also recorded: significantly downregulated genes of the HALLMARK_MYC-TARGETS_V1 gene signature”.
